Results published in publication PMC12384813.
Like-named read-outs stand apart in the source and are kept apart here. Each block holds one compound with its values, some of them ahead of it.

How the values were obtained:
[1] = tested on: SVG p12 normal glial cells
[2] = tested on: U87 MG cells; test: cells; format: cell-based, human
Protocol: In this procedure, U87 MG (2 × 10^4 cells per well) were seeded in BD falcon transparent 96-well plates and incubated for 24 h.

[3] = tested on: SVG p12 normal glial cells; test: cells; conditions: Homo sapiens
[4] = tested on: U87 MG cells; test: Internalization of ^64Cu-NOTA conjugates (glycine-HCl wash); format: cell-based, human; conditions: Table S2
Protocol: (§1) U87 MG (1 × 10^5 per well) were seeded in corning 24-well plates and cultured in DMEM with 10% FBS at 37 °C. […] For uptake assay, cells were washed with PBS to collect surface-bound and internalized activity, and for internalization assay, glycine-HCl wash was performed to remove surface bound activity. Moreover, cells were harvested, counted, and radioactivity was measured using a gamma counter. Results were expressed as percentage of total activity (%) in counts per min (CPM)/10^6 cells. For efflux studies, U87 MG cells were incubated with the complexes for 1 h, then washed with PBS, and replaced with fresh medium. The retained activity was measured over 0 to 24 h after washing.

[5] = tested on: SVG p12 cells; test: as above; format: cell-based, human; conditions: Table S2
[6] = tested on: U87 MG cells; test: Efflux kinetics of ^64Cu-NOTA conjugates; format: cell-based, human; conditions: Table S3
Protocol: as §1

[7] = tested on: SVG p12 cells; test: Cellular uptake of ^64Cu-NOTA conjugates; format: cell-based, human; conditions: Table S1
[8] = tested on: U87 MG cells; test: Cellular uptake of ^64Cu-NOTA conjugates; format: cell-based, human; conditions: Table S1
Protocol: as §1

[9] = tested on: SVG p12 cells; test: Efflux kinetics of ^64Cu-NOTA conjugates; format: cell-based, human; conditions: Table S3
[10] = 0.5 h after 1 h incubation and wash

EC50 ([2]; Homo sapiens, U-87 MG, 24 h, U87 MG, read-out: EC50 24 h U87 MG): 800 ± 11 µM | EC50 ([2]; Homo sapiens, U-87 MG, 48 h, U87 MG, read-out: EC50 48 h U87 MG): 580 ± 8 µM | EC50 ([2]; Homo sapiens, U-87 MG, 72 h, U87 MG, read-out: EC50 72 h U87 MG): 575 ± 6 µM
SMILES: Cn1nnc2c(C(N)=O)ncn2c1=O [Temozolomide]
EC50 [1]: 72 ± 5 µM | EC50 ([3]; SVGp12, 24 h, read-out: EC50 24 h SVG p12): 80 ± 10 µM | EC50 ([3]; SVGp12, 48 h, read-out: EC50 48 h SVG p12): 76 ± 7 µM

EC50 ([2]; 24 h): 0.025 ± 0.007 µM | EC50 ([2]; 48 h): 0.032 ± 0.009 µM | EC50 ([2]; 72 h): 0.045 ± 0.002 µM
SMILES: N=C(N)NCCC[C@@H]1NC(=O)[C@H](CCCCNC(=O)CNC(=O)COCCOCCNC(=O)CN2CCN(CC(=O)O)CCN(CC(=O)O)CC2)NC(=O)[C@@H](Cc2ccccc2)NC(=O)[C@H](CC(=O)O)NC(=O)CNC1=O [[^64Cu]Cu-NOTA-c(RGDfK), metal not drawn]
Internalized activity 1h U87 MG ([4]; 1 h): 3.13 ± 0.31 % total activity (CPM) /106 cells | Internalized activity 2h U87 MG ([4]; 2 h): 3.28 ± 0.26 % total activity (CPM) /106 cells | Internalized activity 4h U87 MG ([4]; 4 h): 5.00 ± 0.58 % total activity (CPM) /106 cells | Internalized activity 24h U87 MG ([4]; 24 h): 11.44 ± 0.62 % total activity (CPM) /106 cells | Internalized activity 48h U87 MG ([4]; 48 h): 15.08 ± 0.38 % total activity (CPM) /106 cells | EC50 [1]: 0.118 ± 0.008 µM | EC50 ([1]; 24 h): > 0.3 µM | EC50 ([1]; 48 h): > 0.2 µM | Internalized activity 1h SVG p12 ([5]; 1 h): 1.72 ±0.14 % total activity (CPM) /106 cells | Internalized activity 2h SVG p12 ([5]; 2 h): 1.90 ± 0.14 % total activity (CPM) /106 cells | Internalized activity 4h SVG p12 ([5]; 4 h): 3.05 ±0.48 % total activity (CPM) /106 cells | Internalized activity 24h SVG p12 ([5]; 24 h): 6.80 ± 0.32 % total activity (CPM) /106 cells | Internalized activity 48h SVG p12 ([5]; 48 h): 5.98 ± 0.36 % total activity (CPM) /106 cells | Efflux (retained activity) 0.5h U87 MG [6, 10]: 89.28 ± 6.24 % total activity (CPM) /106 cells | Efflux (retained activity) 1h U87 MG ([6]; 1 h after wash): 85.47 ± 3.64 % total activity (CPM) /106 cells | Efflux (retained activity) 2h U87 MG ([6]; 2 h after wash): 84.08 ± 7.95 % total activity (CPM) /106 cells | Efflux (retained activity) 4h U87 MG ([6]; 4 h after wash): 80.93 ± 6.97 % total activity (CPM) /106 cells | Efflux (retained activity) 24h U87 MG ([6]; 24 h after wash): 67.59 ± 2.23 % total activity (CPM) /106 cells | Uptake 1h SVG p12 ([7]; 1 h): 2.67 ± 0.20 % total activity (CPM) /106 cells | Uptake 2h SVG p12 ([7]; 2 h): 4.02 ± 0.41 % total activity (CPM) /106 cells | Uptake 4h SVG p12 ([7]; 4 h): 5.36 ± 0.94 % total activity (CPM) /106 cells | Uptake 24h SVG p12 ([7]; 24 h): 7.90 ± 0.41 % total activity (CPM) /106 cells | Uptake 48h SVG p12 ([7]; 48 h): 7.30 ± 0.44 % total activity (CPM) /106 cells | Uptake 1h U87 MG ([8]; 1 h, 37 °C): 2.50 ±1.00 % total activity (CPM) /106 cells | Uptake 2h U87 MG ([8]; 2 h): 3.23 ±0.61 % total activity (CPM) /106 cells | Uptake 4h U87 MG ([8]; 4 h): 6.08 ± 0.60 % total activity (CPM) /106 cells | Uptake 24h U87 MG ([8]; 24 h): 14.11 ± 0.95 % total activity (CPM) /106 cells | Uptake 48h U87 MG ([8]; 48 h): 18.95 ± 0.45 % total activity (CPM) /106 cells | Efflux (retained activity) 0.5h SVG p12 [9, 10]: 94.55 ± 7.92 % total activity (CPM) /106 cells | Efflux (retained activity) 1h SVG p12 ([9]; 1 h after wash): 88.05 ± 6.90 % total activity (CPM) /106 cells | Efflux (retained activity) 2h SVG p12 ([9]; 2 h after wash): 83.93 ± 6.98 % total activity (CPM) /106 cells | Efflux (retained activity) 4h SVG p12 ([9]; 4 h after wash): 73.44 ± 3.92 % total activity (CPM) /106 cells | Efflux (retained activity) 24h SVG p12 ([9]; 24 h after wash): 17.62 ± 1.81 % total activity (CPM) /106 cells
